The test system of series [1] is Enterobacter cloacae HNR 1946. The series is described as follows: Antibacterial spectrum, MIC by twofold agar dilution method. In kind it is cell-based. Particulars: HNR1946, 10^6 cfu/ml, clinically isolated strain, Gram -, 18 hrs at 37° C. How it is done:
(§1) Overnight cultures in Mueller-Hinton broth were suspended by buffered saline gelatin. One loopful of the bacterial suspension (10^6 or 10^8 colony-forming units/ml) was incubated onto the plates containing test compounds. The plates were incubated for 18 hrs at 37° C. The MIC was defined by the lowest concentration of the drug that inhibited visible growth of bacteria.
(In general: In agar dilution, organisms are placed on agar that contains the substance at set levels.)

Series [2] relates to Enterobacter cloacae HNR 1939. The series is described as above. Type of series: cell-based. Particulars: HNR1939, 10^6 cfu/ml, clinically isolated strain, Gram -, 18 hrs at 37° C. How it is done: as §1
Series [3] relates to Enterococcus faecalis HPC 948. The description is as above. In kind it is cell-based. The conditions noted are these: HPC948, 10^6 cfu/ml, clinically isolated strain, Gram +, 18 hrs at 37° C. Here is the method:
as §1

Series [4] has as its system Enterococcus faecalis HPC 984. The series is described as above. Particulars: HPC984, 10^6 cfu/ml, clinically isolated strain, Gram +, 18 hrs at 37° C. In kind it is cell-based. Here is the method:
as §1

For series [5], the system named is Klebsiella pneumoniae HNR 828. The series is described as above. In kind it is cell-based. Particulars: HNR828, 10^6 cfu/ml, clinically isolated strain, Gram -, 18 hrs at 37° C. Here is the method:
as §1

Series [6] deals with Serratia marcescens HNR 1792. The series is described as above. Particulars: HNR1792, 10^6 cfu/ml, clinically isolated strain, Gram -, 18 hrs at 37° C. In kind it is cell-based. Here is the method:
as §1

Series [7] has as its system Enterobacter cloacae HNR 1941. The series is described as above. In kind it is cell-based. Particulars: HNR1941, 10^6 cfu/ml, clinically isolated strain, Gram -, 18 hrs at 37° C. Here is the method:
as §1

Series [8] has as its system Serratia marcescens HNR 1544. Described as above. In kind it is cell-based. Particulars: HNR1544, 10^6 cfu/ml, clinically isolated strain, Gram -, 18 hrs at 37° C. Here is the method:
as §1

The test system of series [9] is Klebsiella pneumoniae HNR 858. The description is as above. Type of series: cell-based. The conditions noted are these: HNR858, 10^6 cfu/ml, clinically isolated strain, Gram -, 18 hrs at 37° C. How it is done: as §1
Series [10] has as its system Acinetobacter calcoaceticus HNR 904. The description is as above. Type of series: cell-based. Particulars: HNR904, 10^6 cfu/ml, clinically isolated strain, Gram -, 18 hrs at 37° C. How it is done:
as §1

In series [11] the test system is Klebsiella pneumoniae HNR 869. The description is as above. Type of series: cell-based. Particulars: HNR869, 10^6 cfu/ml, clinically isolated strain, Gram -, 18 hrs at 37° C. Here is the method:
as §1

In series [12] the test system is Staphylococcuss aureus HPC 527. The series is described as above. In kind it is cell-based. Particulars: 10^6 cfu/ml; clinically isolated strain, Gram +; 18 hrs at 37° C. How it is done:
as §1

Series [13] has as its system Acinetobacter calcoaceticus HNR 916. The description is as above. The conditions noted are these: HNR916, 10^6 cfu/ml, clinically isolated strain, Gram -, 18 hrs at 37° C. Type of series: cell-based. How it is done:
as §1

Series [14] deals with Staphylococcuss aureus HPC 308. The description is as above. The conditions noted are these: 10^6 cfu/ml; clinically isolated strain, Gram +; 18 hrs at 37° C. In kind it is cell-based. How it is done:
as §1

Series [15] has as its system Escherichia coli NIHJ JC-2. The description is as above. In kind it is cell-based. The conditions noted are these: NIHJJC2, 10^6 cfu/ml, standard laboratory strain, Gram -, 18 hrs at 37° C. Here is the method: as §1
In series [16] the test system is Pseudomonas aeruginosa HNR 1472. The description is as above. The conditions noted are these: HNR1472, 10^6 cfu/ml, clinically isolated strain, Gram -, 18 hrs at 37° C. Type of series: cell-based. How it is done:
as §1

Series [17] has as its system Serratia marcescens HNR 1767. Described as above. Type of series: cell-based. The conditions noted are these: HNR1767, 10^6 cfu/ml, clinically isolated strain, Gram -, 18 hrs at 37° C. Here is the method:
as §1

The subject of series [18] is Enterococcus faecalis HPC 975. Described as above. Type of series: cell-based. The conditions noted are these: HPC975, 10^6 cfu/ml, clinically isolated strain, Gram +, 18 hrs at 37° C. Here is the method: as §1
For series [19], the system named is Acinetobacter calcoaceticus HNR 939. The description is as above. Type of series: cell-based. The conditions noted are these: HNR939, 10^6 cfu/ml, clinically isolated strain, Gram -, 18 hrs at 37° C. Here is the method: as §1
The subject of series [20] is Pseudomonas aeruginosa HNR 1537. The description is as above. In kind it is cell-based. The conditions noted are these: HNR1537, 10^6 cfu/ml, clinically isolated strain, Gram -, 18 hrs at 37° C. How it is done: as §1
The test system of another series is Enterobacter cloacae 963. The series is described as above. In kind it is cell-based. The conditions noted are these: 10^6 cfu/ml, standard laboratory strain, Gram -, 18 hrs at 37° C. Here is the method: as §1
For series [21], the system named is Pseudomonas aeruginosa IFO 3445. The series is described as above. In kind it is cell-based. The conditions noted are these: IFO3445, 10^6 cfu/ml, standard laboratory strain, Gram -, 18 hrs at 37° C. How it is done: as §1
Series [22] deals with Serratia marcescens IAM 1184. The description is as above. Particulars: IAM1184, 10^6 cfu/ml, standard laboratory strain, Gram -, 18 hrs at 37° C. In kind it is cell-based. How it is done: as §1
For series [23], the system named is Staphylococuss aureus FDA 209PJC-1. The series is described as above. In kind it is cell-based. Particulars: 10^6 cfu/ml; standard laboratory strain, Gram +; 18 hrs at 37° C. Here is the method:
as §1

Series [24] concerns Staphylococcuss aureus HPC 292. The series is described as above. In kind it is cell-based. Here is the method: as §1
For series [25], the system named is Pseudomonas aeruginosa HNR 1489. The series is described as above. In kind it is cell-based. Particulars: HNR1489, 10^6 cfu/ml, clinically isolated strain, Gram -, 18 hrs at 37° C. Here is the method:
as §1

Series [26] has as its system Klebsiella pneumoniae PCI-602. Described as above. In kind it is cell-based. How it is done:
Minimum inhibitory concentrations (MIC) of test compounds were determined by the twofold agar dilution method (Chemotherapy, 29(1), 76(1981)). Overnight cultures in Mueller-Hinton broth were suspended by buffered saline gelatin. One loopful of the bacterial suspension (10^6 or 10^8 colony-forming units/ml) was incubated onto the plates containing test compounds. The plates were incubated for 18 hrs at 37° C. The MIC was defined by the lowest concentration of the drug that inhibited visible growth of bacteria.

Series [27] has as its system Male mice of ddY strain. Kind of series: Convulsion inducing activity in combination with fenbufen. Particulars: 30 min after fenbufen 100 mg/kg orally.
Description: Male mice of ddY strain, 5 weeks old, were used. Fenbufen suspended in 0.5% carboxymethyl cellulose was administered orally at a dose of 100 mg/kg. After thirty minutes, test compounds suspended in 0.5% carboxymethyl cellulose were injected intraperitoneally (i.p.) at a dose of 100 mg/kg or 300 mg/kg.
The test system of series [28] is Male mice of ddY strain. The series is described as follows: Acute toxicity (i.v.). The conditions noted are these: 270 mg/kg (i.v.). In kind it is in vivo. Here is the method:
Male mice of ddY strain, 4 weeks old, were used. Test compounds were solved in 0.1N--NaOH solution and neutralized with 0.1N--HCl solution. Each compound was administered intravenously (i.v.) at a dose of 270 mg/kg. […]

Setting [29] is: PCI602, 10^6 cfu/ml, standard laboratory strain, Gram -, 18 hrs at 37° C, read-out: MIC.

Converted amounts (≈) assume the structure as drawn. Counter-ions that a name gives are not always drawn. Like-named read-outs stand apart in the source and are kept apart here.

A word on the MIC: it is the lowest concentration that inhibits growth of the organism. As for `CC1Sc2c(C(=O)O)c(=O)c3cc(F)c(N4CCC(N(C)C)C4)c(F)c3n21` (stereo not shown) [Example 36, 7-(3-Dimethylamino-1-pyrrolidinyl)-6,8-difluoro-1-methyl-4-oxo-1H,4H-[1,3]thiazeto[3,2-a]quinoline-3-carboxylic acid], the minimum inhibitory concentration (MIC) came out at 0.78 µg/mL (≈ 1.97 µM) in [1]; 0.78 µg/mL (≈ 1.97 µM) in series [2]; 3.13 µg/mL (≈ 7.92 µM) in series [3]; 0.78 µg/mL (≈ 1.97 µM) in series [4]; 12.5 µg/mL (≈ 31.6 µM) in [5]; 12.5 µg/mL (≈ 31.6 µM) in series [6]. The MIC is 25 µg/mL (≈ 63.2 µM) in series [7]; 0.2 µg/mL (≈ 0.506 µM) in series [8]; 0.78 µg/mL (≈ 1.97 µM) in series [9]; 12.5 µg/mL (≈ 31.6 µM) in [10]; 6.25 µg/mL (≈ 15.8 µM) in [11]; 0.2 µg/mL (≈ 0.506 µM) in [12]. Further, the MIC in series [13] is 0.1 µg/mL (≈ 0.253 µM); in series [14], 1.56 µg/mL (≈ 3.95 µM); in series [15] it was 0.1 µg/mL (≈ 0.253 µM); in series [16] it was 50 µg/mL (≈ 126 µM); in [17], 25 µg/mL (≈ 63.2 µM); in series [18], 6.25 µg/mL (≈ 15.8 µM). Moreover, the minimal inhibitory concentration (MIC) in series [19] was 0.78 µg/mL (≈ 1.97 µM); in series [20], 100 µg/mL (≈ 253 µM); with Enterobacter cloacae 963, 0.2 µg/mL (≈ 0.506 µM); in series [21], 0.78 µg/mL (≈ 1.97 µM); in series [22] it was 0.2 µg/mL (≈ 0.506 µM); in series [23], 0.2 µg/mL (≈ 0.506 µM). For the same compound, the minimal inhibitory concentration (MIC) was 6.25 µg/mL (≈ 15.8 µM) in series [24] (10^6 cfu/ml, clinically isolated strain, Gram +, 18 hrs at 37° C, read-out: MIC); 0.78 µg/mL (≈ 1.97 µM) in series [25]; 0.025 µg/mL (≈ 0.0632 µM) in series [26] (setting [29]).

For `CC1Sc2c(C(=O)O)c(=O)c3cc(F)c(N4CC[C@H](N(C)C)C4)c(F)c3n21` (stereo partly drawn) [Example 37, 7-((S)-3-Dimethylamino-1-pyrrolidinyl)-6,8-difluoro-1-methyl-4-oxo-1H,4H-[1,3]thiazeto[3,2-a]quinoline-3-carboxylic acid], the minimum inhibitory concentration (MIC) in [1] turned out to be 1.56 µg/mL (≈ 3.95 µM); in series [2], 0.78 µg/mL (≈ 1.97 µM); in series [3], 3.13 µg/mL (≈ 7.92 µM); in series [4], 0.78 µg/mL (≈ 1.97 µM); in [5] it was 12.5 µg/mL (≈ 31.6 µM); in series [6], 12.5 µg/mL (≈ 31.6 µM). The minimum inhibitory concentration (MIC) in series [7] was 25 µg/mL (≈ 63.2 µM); in series [8], 0.2 µg/mL (≈ 0.506 µM); in series [9], 0.78 µg/mL (≈ 1.97 µM); in series [10], 25 µg/mL (≈ 63.2 µM); in series [11], 3.13 µg/mL (≈ 7.92 µM); in series [12], 0.2 µg/mL (≈ 0.506 µM). In addition, the MIC in series [13] is 0.2 µg/mL (≈ 0.506 µM); in series [14] it was 3.13 µg/mL (≈ 7.92 µM); in series [15] it was 0.1 µg/mL (≈ 0.253 µM); in [16], 50 µg/mL (≈ 126 µM); in [17], 25 µg/mL (≈ 63.2 µM); in series [18] it was 12.5 µg/mL (≈ 31.6 µM). The minimum inhibitory concentration (MIC) in [19] is 1.56 µg/mL (≈ 3.95 µM); in series [20], 100 µg/mL (≈ 253 µM); with Enterobacter cloacae 963, 0.2 µg/mL (≈ 0.506 µM); in series [21] it was 0.78 µg/mL (≈ 1.97 µM); in series [22], 0.39 µg/mL (≈ 0.986 µM); in series [23] it was 0.2 µg/mL (≈ 0.506 µM). The MIC worked out at 6.25 µg/mL (≈ 15.8 µM) in [24] (18 h), 0.78 µg/mL (≈ 1.97 µM) in [25] and 0.05 µg/mL (≈ 0.126 µM) in [26] (setting [29]).

`O=C(O)c1cn(C2CC2)c2cc(N3CCNCC3)c(F)cc2c1=O` [Reference Drug A, ciprofloxacin hydrochloride, reference compound] showed a minimum inhibitory concentration (MIC) in series [26] (PCI602, 18 h) of 0.012 µg/mL. Also, the “Number of convulsion induced/Number of animals” value is reported as 4/6 in the series on Male mice of ddY strain [27] (100 mg/kg (i.p.)) and 6/6 with Male mice of ddY strain [27] (300 mg/kg (i.p.)). In the series with Male mice of ddY strain [28], the “Number of death/Number of animals” value is given as 7/10.

Source of the values: patent publication US5126337A, “Thiazetoquinoline-3-carboxylic acid derivative and a pharmaceutical composition comprising the same” (priority 1989, dated 1992).
